# Bridge positions count the residues as written; N and C are the ends. Square brackets hold non-standard residues; d marks the D form. Peptide text beside a SMILES is read from it. I, II: the chains in the order shown. hArg = N=C(N)NCCCC[C@H](N)C(=O)O; Ac5c = NC1(C(=O)O)CCCC1; Nva = CCC[C@H](N)C(=O)O; Abu = CC[C@H](N)C(=O)O; Aib = CC(C)(N)C(=O)O
# Target: T1, Saos-2 PTH1R (Homo sapiens, UniProt Q03431)
# T1 construct: endogenous in cells; host or cells: Saos-2
# T1 sequence (Q03431 27-593): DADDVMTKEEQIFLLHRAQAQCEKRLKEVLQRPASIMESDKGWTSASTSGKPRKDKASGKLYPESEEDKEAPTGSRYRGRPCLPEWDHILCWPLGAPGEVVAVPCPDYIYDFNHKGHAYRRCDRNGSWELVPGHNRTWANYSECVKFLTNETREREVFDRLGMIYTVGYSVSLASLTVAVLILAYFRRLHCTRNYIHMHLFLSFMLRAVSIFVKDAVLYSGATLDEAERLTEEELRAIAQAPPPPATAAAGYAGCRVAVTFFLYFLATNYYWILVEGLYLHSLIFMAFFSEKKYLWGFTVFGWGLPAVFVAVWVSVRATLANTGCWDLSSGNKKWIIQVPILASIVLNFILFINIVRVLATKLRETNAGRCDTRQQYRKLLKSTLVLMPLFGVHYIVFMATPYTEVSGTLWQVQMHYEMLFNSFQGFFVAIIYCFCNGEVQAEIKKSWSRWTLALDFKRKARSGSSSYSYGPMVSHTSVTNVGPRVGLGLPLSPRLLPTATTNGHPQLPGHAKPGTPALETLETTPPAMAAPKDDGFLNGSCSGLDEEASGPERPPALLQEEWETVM
# Assay: cAMP-efficacy assay in Saos-2 cells
# Type: cell-based
# Details: for EC50: cAMP, 100 μM IBMX, 37° C. 15 min, suffix of label = salt tested; for Emax ± SEM: relative effect to the control (SEQ ID NO: 32)
# Experimental: Peptides were dissolved in phosphate buffered saline and further diluted in Tyrode's buffer (TB, Sigma-Aldrich) containing 0.1% BSA and 100 μM isobutyl-methyl-xanthine (IBMX, Sigma-Aldrich). Saos-2 cells were seeded at 50,000 cells/well in 96-microtiter plates and grown for two days before the efficacy assays. On the day of analysis, the growth medium was carefully removed by suction. Cells were washed once with 200 μl TB/0.1% BSA. The buffer was replaced with 100 μl reaction mixture (±test peptide), and incubated at 37° C. for 15 min. The reaction was stopped by addition of 25 μl of ice-cold 0.5 M HCl. Cells were in the following incubated on ice for 60 min. 75 μl acetate-buffer, pH6.2, was added to each well of a 96-well cAMP FlashPlate (Perkin-Elmer). […] FlashPlates were incubated overnight at 4° C., emptied by suction and counted in a TopCounter (Packard).
# Determinations were performed in single determinations or triplicates at all doses. […] Standards were included as single determinations, duplicates or triplicates in each experiment, preferentially on each plate.
# Concentration-dependent cAMP responses were imported into GraphPad Prism vers. 4 (GraphPad Software), transformed and plotted. […] Thus, a four-parameter logistic equation was used for determination of the EC50 values. Curves were fitted with a function for sigmoidal dose response curve (variable slope) non-linear fit Y=Bottom+(Top-Bottom)/(1+10̂((LogEC50−X)*HillSlope)) where X is the logarithm of concentration and Y is the response. Y starts at Bottom and goes to Top with a sigmoid shape. pEC50, Hill-coefficient and the maximally inducible concentration of cAMP (Emax) were evaluated.
# Overall statistical differences were analyzed with Statistica (Statsoft) using one-way ANOVA. Post-hoc comparisons were made by the use of Fisher's Least Significance Test. Results were considered significant, when p was lower than 0.05.
Compound,EC50 [nM],Emax ± SEM
"CC[C@H](C)[C@H](NC(=O)[C@H](CCC(=O)O)NC(=O)C(C)(C)NC(=O)[C@@H](NC(=O)C1(N)CCCC1)C(C)C)C(=O)N[C@@H](CCC(=O)O)C(=O)N[C@@H](CC(C)C)C(=O)N[C@@H](CC(C)C)C(=O)N[C@@H](Cc1c[nH]cn1)C(=O)N[C@@H](CCC(N)=O)C(=O)N[C@@H](CCCCNC(=N)N)C(=O)N[C@@H](C)C(=O)N[C@H]1CCCCNC(=O)C[C@@H](C(N)=O)NC(=O)[C@H](CC(N)=O)NC(=O)[C@H](CC(C)C)NC(=O)[C@H](Cc2c[nH]c3ccccc23)NC1=O [SEQ ID NO: 29, H-Ac5c-Val-Aib-Glu-Ile-Glu-Leu-Leu-His-Gln-Har-Ala-Lys( )-Trp-Leu-Asn-Asp( )-NH2] (H-[Ac5c]V[Aib]EIELLHQ[hArg]AKWLND-NH2; lactam 13-17)",112,1.27 ± 0.20
"CC[C@H](C)[C@H](NC(=O)[C@H](CCC(=O)O)NC(=O)C(C)(C)NC(=O)[C@@H](NC(=O)C1(N)CCCC1)C(C)C)C(=O)N[C@@H](CCC(N)=O)C(=O)N[C@@H](CC(C)C)C(=O)N[C@@H](CC(C)C)C(=O)N[C@@H](Cc1c[nH]cn1)C(=O)N[C@@H](CCC(N)=O)C(=O)N[C@@H](CCCCNC(=N)N)C(=O)N[C@@H](CCCNC(=N)N)C(=O)N[C@H]1CCCCNC(=O)C[C@@H](C(N)=O)NC(=O)[C@H](CC(N)=O)NC(=O)[C@H](CC(C)C)NC(=O)[C@H](Cc2c[nH]c3ccccc23)NC1=O [SEQ ID NO: 28, H-Ac5c-Val-Aib-Glu-Ile-Gln-Leu-Leu-His-Gln-Har-Arg-Lys( )-Trp-Leu-Asn-Asp( )-NH2] (H-[Ac5c]V[Aib]EIQLLHQ[hArg]RKWLND-NH2; lactam 13-17)",5.37,0.95 ± 0.06
"CC[C@H](N)C(=O)N[C@H](C(=O)NC(C)(C)C(=O)N[C@@H](CCC(=O)O)C(=O)N[C@H](C(=O)N[C@@H](CCC(N)=O)C(=O)N[C@@H](CC(C)C)C(=O)N[C@@H](CC(C)C)C(=O)N[C@@H](Cc1c[nH]cn1)C(=O)N[C@@H](CCC(N)=O)C(=O)N[C@@H](CCCCNC(=N)N)C(=O)N[C@@H](C)C(=O)N[C@H]1CCCCNC(=O)C[C@@H](C(N)=O)NC(=O)[C@H](CC(N)=O)NC(=O)[C@H](CC(C)C)NC(=O)[C@H](Cc2c[nH]c3ccccc23)NC1=O)[C@@H](C)CC)C(C)C [SEQ ID NO: 11, H-Abu-Val-Aib-Glu-Ile-Gln-Leu-Leu-His-Gln-Har-Ala-Lys( )-Trp-Leu-Asn-Asp( )-NH2] (H-[Abu]V[Aib]EIQLLHQ[hArg]AKWLND-NH2; lactam 13-17)",67.6,1.04 ± 0.05
"CC[C@H](C)[C@H](NC(=O)[C@H](CCC(=O)O)NC(=O)C(C)(C)NC(=O)[C@@H](NC(=O)C1(N)CCCC1)C(C)C)C(=O)N[C@@H](CCC(N)=O)C(=O)N[C@@H](CC(C)C)C(=O)N[C@@H](CCSC)C(=O)N[C@@H](Cc1c[nH]cn1)C(=O)N[C@@H](CCC(N)=O)C(=O)N[C@@H](CCCCNC(=N)N)C(=O)N[C@@H](C)C(=O)N[C@H]1CC(=O)NCCCC[C@@H](C(N)=O)NC(=O)[C@H](CC(N)=O)NC(=O)[C@H](CC(C)C)NC(=O)[C@H](Cc2c[nH]c3ccccc23)NC1=O [SEQ ID NO: 6, H-Ac5c-Val-Aib-Glu-Ile-Gln-Leu-Met-His-Gln-Har-Ala-Asp( )-Trp-Leu-Asn-Lys( )-NH2] (H-[Ac5c]V[Aib]EIQLMHQ[hArg]ADWLNK-NH2; lactam 13-17)",126,1.5
"CCC[C@H](N)C(=O)N[C@H](C(=O)NC(C)(C)C(=O)N[C@@H](CCC(=O)O)C(=O)N[C@H](C(=O)N[C@@H](CCC(N)=O)C(=O)N[C@@H](CC(C)C)C(=O)N[C@@H](CC(C)C)C(=O)N[C@@H](Cc1c[nH]cn1)C(=O)N[C@@H](CCC(N)=O)C(=O)N[C@@H](CCCCNC(=N)N)C(=O)N[C@@H](C)C(=O)N[C@H]1CCCCNC(=O)C[C@@H](C(N)=O)NC(=O)[C@H](CC(N)=O)NC(=O)[C@H](CC(C)C)NC(=O)[C@H](Cc2c[nH]c3ccccc23)NC1=O)[C@@H](C)CC)C(C)C [SEQ ID NO: 12, H-Nva-Val-Aib-Glu-Ile-Gln-Leu-Leu-His-Gln-Har-Ala-Lys( )-Trp-Leu-Asn-Asp( )-NH2] (H-[Nva]V[Aib]EIQLLHQ[hArg]AKWLND-NH2; lactam 13-17)",102,1.04 ± 0.03
"CC[C@H](C)[C@H](NC(=O)[C@H](CCC(=O)O)NC(=O)C(C)(C)NC(=O)[C@@H](NC(=O)C1(N)CCCC1)C(C)C)C(=O)N[C@@H](CCC(N)=O)C(=O)N[C@@H](CC(C)C)C(=O)N[C@@H](CCSC)C(=O)N[C@@H](Cc1c[nH]cn1)C(=O)N[C@@H](CCC(N)=O)C(=O)N[C@@H](CCCCNC(=N)N)C(=O)N[C@@H](C)C(=O)N[C@H]1CCCCNC(=O)C[C@@H](C(N)=O)NC(=O)[C@H](CC(N)=O)NC(=O)[C@H](CC(C)C)NC(=O)[C@H](Cc2c[nH]c3ccccc23)NC(=O)[C@@H](NC(=O)[C@H](C)NC(=O)[C@H](CCCCNC(=N)N)NC(=O)[C@H](CCC(N)=O)NC(=O)[C@H](Cc2c[nH]cn2)NC(=O)[C@H](CCSC)NC(=O)[C@H](CC(C)C)NC(=O)[C@H](CCC(N)=O)NC(=O)[C@@H](NC(=O)[C@H](CCC(=O)O)NC(=O)C(C)(C)NC(=O)[C@@H](NC(=O)C2(N)CCCC2)C(C)C)[C@@H](C)CC)CCCCNC(=O)C[C@@H](C(N)=O)NC(=O)[C@H](CC(N)=O)NC(=O)[C@H](CC(C)C)NC(=O)[C@H](Cc2c[nH]c3ccccc23)NC1=O [SEQ ID NO: 39, (H-Ac5c-Val-Aib-Glu-Ile-Gln-Leu-Met-His-Gln-Har-Ala-Lys( )-Trp-Leu-Asn-Asp( )-NH2)2] (I: H-[Ac5c]V[Aib]EIQLMHQ[hArg]AKWLND-NH2 / II: H-[Ac5c]V[Aib]EIQLMHQ[hArg]AKWLND-NH2; amide I:13-II:17, I:17-II:13)",–,0.95 ± 0.05
"CC[C@H](C)[C@H](NC(=O)[C@H](CCC(=O)O)NC(=O)C(C)(C)NC(=O)[C@@H](NC(=O)C1(N)CCCC1)C(C)C)C(=O)N[C@@H](CCC(N)=O)C(=O)N[C@@H](CC(C)C)C(=O)N[C@@H](CC(C)C)C(=O)N[C@@H](Cc1c[nH]cn1)C(=O)N[C@@H](CCC(N)=O)C(=O)N[C@@H](CCCCNC(=N)N)C(=O)N[C@@H](C)C(=O)N[C@H]1CCCCNC(=O)C[C@@H](C(N)=O)NC(=O)[C@H](CC(=O)O)NC(=O)[C@H](CC(C)C)NC(=O)[C@H](Cc2c[nH]c3ccccc23)NC1=O [SEQ ID NO: 22, H-Ac5c-Val-Aib-Glu-Ile-Gln-Leu-Leu-His-Gln-Har-Ala-Lys( )-Trp-Leu-Asp-Asp( )-NH2] (H-[Ac5c]V[Aib]EIQLLHQ[hArg]AKWLDD-NH2; lactam 13-17)",74.1,1.08 ± 0.04
"CC[C@H](NC(=O)[C@@H](NC(=O)C1(N)CCCC1)C(C)C)C(=O)N[C@@H](CCC(=O)O)C(=O)N[C@H](C(=O)N[C@@H](CCC(N)=O)C(=O)N[C@@H](CC(C)C)C(=O)N[C@@H](CC(C)C)C(=O)N[C@@H](Cc1c[nH]cn1)C(=O)N[C@@H](CCC(N)=O)C(=O)N[C@@H](CCCCNC(=N)N)C(=O)N[C@@H](C)C(=O)N[C@H]1CCCCNC(=O)C[C@@H](C(N)=O)NC(=O)[C@H](CC(N)=O)NC(=O)[C@H](CC(C)C)NC(=O)[C@H](Cc2c[nH]c3ccccc23)NC1=O)[C@@H](C)CC [SEQ ID NO: 15, H-Ac5c-Val-Abu-Glu-Ile-Gln-Leu-Leu-His-Gln-Har-Ala-Lys( )-Trp-Leu-Asn-Asp( )-NH2] (H-[Ac5c]V[Abu]EIQLLHQ[hArg]AKWLND-NH2; lactam 13-17)",60.3,1.04 ± 0.03
